Key:
Assay in all cases: Test B pre-/postemergence plant response
Assay type in all cases: in vivo
[1] = test system: blackgrass (Alopecurus myosuroides); conditions: for Blackgrass plant response rating: 8 g ai/ha
Outline: (§1)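 Visual scoring from 0 (no effect) to 100 (complete control) against untreated controls was done 13 to 15 days after greenhouse treatment. Chemicals were formulated in a surfactant-containing non-phytotoxic solvent and applied to soil preemergence or to 1- to 4-leaf (2-18 cm) plants postemergence.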

[2] = test system: catchweed bedstraw (Galium aparine); conditions: Preemergence
Outline: as §1

[3] = test system: common (oilseed) sunflower (Helianthus annuus); conditions: Preemergence
Outline: as §1

[4] = test system: common ragweed (Ambrosia elation); conditions: for Ragweed plant response rating: 8 g ai/ha
Outline: as §1

corn (Zea mays) = conditions: for Corn plant response rating: 8 g ai/ha
Outline: as §1

[5] = test system: downy bromegrass (Bromus tectorum); conditions: for Bromegrass, Downy plant response rating: 8 g ai/ha
Outline: as §1

[6] = test system: giant foxtail (Setaria faberii); conditions: for Foxtail, Giant plant response rating: 8 g ai/ha
Outline: as §1

kochia (Kochia scoparia) = conditions: for Kochia plant response rating: 8 g ai/ha
Outline: as §1

[7] = test system: lambsquarters (Chenopodium album); conditions: for Lambsquarters plant response rating: 8 g ai/ha
Outline: as §1

[8] = test system: pigweed (Amaranthus retroflexus); conditions: for Pigweed plant response rating: 8 g ai/ha
Outline: as §1

[9] = test system: velvetleaf (Abutilon theophrasti); conditions: for Velvetleaf plant response rating: 8 g ai/ha
Outline: as §1

wild oat (Avena fatua) = conditions: for Oat, Wild plant response rating: 8 g ai/ha
Outline: as §1

[10] = test system: woolly cupgrass (Eriochloa villosa); conditions: for Cupgrass, Woolly plant response rating: 8 g ai/ha
Outline: as §1

[11] = test system: yellow nutsedge (Cyperus esculentus)
Outline: as §1

[12] = Postemergence, 16 g ai/ha, scale 0 to 100
[13] = Postemergence, 31 g ai/ha, scale 0 to 100, 0 no effect, 100 complete control
[14] = Postemergence, 62 g ai/ha, scale 0 to 100
[15] = Preemergence, 16 g ai/ha, scale 0 to 100 (0 no effect, 100 complete control)
[16] = Preemergence, 31 g ai/ha, 0 to 100 scale, 0 no effect, 100 complete control
[17] = Preemergence, 62 g ai/ha, scale 0 to 100
[18] = 16 g ai/ha, scale 0 to 100 (0 no effect, 100 complete control)
[19] = 31 g ai/ha, 0 to 100 scale, 0 no effect, 100 complete control

## CCc1cc(-c2ccc(Cl)cc2)nn1-c1c(O)cnn(C)c1=O [Compound 21]
[1]; postemergence, 0-100 scale
  Blackgrass plant response rating: 95
[1]; [12]
  Plant response rating, Blackgrass: 95
[1]; [13]
  Plant response rating, Blackgrass: 100
[1]; [14]
  Plant response rating, Blackgrass: 100
[1]; [15]
  Plant response rating, Blackgrass: 100
[1]; [16]
  Plant response rating, Blackgrass: 100
[1]; [17]
  Plant response rating, Blackgrass: 100
[1]; Preemergence, scale 0 to 100
  Blackgrass plant response rating: 95
[2]; [18]
  Plant response rating, Galium: 0
[2]; [19]
  Plant response rating, Galium: 0
[2]; 62 g ai/ha, scale 0 to 100
  Plant response rating, Galium: 90
[2]; 8 g ai/ha, scale 0 to 100
  Galium plant response rating: 0
[3]; [18]
  Plant response rating, Sunflower: 0
[3]; [19]
  Plant response rating, Sunflower: 0
[3]; 62 g ai/ha, scale 0 to 100
  Plant response rating, Sunflower: 0
[4]; postemergence, 0-100 scale
  Ragweed plant response rating: 0
[4]; [12]
  Plant response rating, Ragweed: 0
[4]; [13]
  Plant response rating, Ragweed: 0
[4]; [14]
  Plant response rating, Ragweed: 0
[4]; [15]
  Plant response rating, Ragweed: 0
[4]; [16]
  Plant response rating, Ragweed: 0
[4]; [17]
  Plant response rating, Ragweed: 0
[4]; Preemergence, scale 0 to 100
  Ragweed plant response rating: 0
Corn (Zea mays); postemergence, 0-100 scale
  Corn plant response rating: 50
Corn (Zea mays); [12]
  Plant response rating, Corn: 100
Corn (Zea mays); [13]
  Plant response rating, Corn: 100
Corn (Zea mays); [14]
  Plant response rating, Corn: 100
Corn (Zea mays); [15]
  Plant response rating, Corn: 80
Corn (Zea mays); [16]
  Plant response rating, Corn: 95
Corn (Zea mays); [17]
  Plant response rating, Corn: 98
Corn (Zea mays); Preemergence, scale 0 to 100
  Corn plant response rating: 70
[5]; postemergence, 0-100 scale
  Bromegrass, Downy plant response rating: 55
[5]; [12]
  Plant response rating, Bromegrass, Downy: 55
[5]; [13]
  Plant response rating, Bromegrass, Downy: 80
[5]; [14]
  Plant response rating, Bromegrass, Downy: 85
[5]; [15]
  Plant response rating, Bromegrass, Downy: 50
[5]; [16]
  Plant response rating, Bromegrass, Downy: 60
[5]; [17]
  Plant response rating, Bromegrass, Downy: 100
[5]; Preemergence, scale 0 to 100
  Bromegrass, Downy plant response rating: 0
[6]; postemergence, 0-100 scale
  Foxtail, Giant plant response rating: 98
[6]; [12]
  Plant response rating, Foxtail, Giant: 100
[6]; [13]
  Plant response rating, Foxtail, Giant: 100
[6]; [14]
  Plant response rating, Foxtail, Giant: 100
[6]; [15]
  Plant response rating, Foxtail, Giant: 100
[6]; [16]
  Plant response rating, Foxtail, Giant: 100
[6]; [17]
  Plant response rating, Foxtail, Giant: 100
[6]; Preemergence, scale 0 to 100
  Foxtail, Giant plant response rating: 85
Kochia (Kochia scoparia); postemergence, 0-100 scale
  Kochia plant response rating: 0
Kochia (Kochia scoparia); [12]
  Plant response rating, Kochia: 0
Kochia (Kochia scoparia); [13]
  Plant response rating, Kochia: 0
Kochia (Kochia scoparia); [14]
  Plant response rating, Kochia: 0
Kochia (Kochia scoparia); [15]
  Plant response rating, Kochia: 0
Kochia (Kochia scoparia); [16]
  Plant response rating, Kochia: 0
Kochia (Kochia scoparia); [17]
  Plant response rating, Kochia: 0
Kochia (Kochia scoparia); Preemergence, scale 0 to 100
  Kochia plant response rating: 0
[7]; postemergence, 0-100 scale
  Lambsquarters plant response rating: 0
[7]; [12]
  Plant response rating, Lambsquarters: 0
[7]; [13]
  Plant response rating, Lambsquarters: 0
[7]; [14]
  Plant response rating, Lambsquarters: 0
[7]; [15]
  Plant response rating, Lambsquarters: 0
[7]; [16]
  Plant response rating, Lambsquarters: 100
[7]; [17]
  Plant response rating, Lambsquarters: 100
[7]; Preemergence, scale 0 to 100
  Lambsquarters plant response rating: 0
[8]; postemergence, 0-100 scale
  Pigweed plant response rating: 0
[8]; [12]
  Plant response rating, Pigweed: 0
[8]; [13]
  Plant response rating, Pigweed: 0
[8]; [14]
  Plant response rating, Pigweed: 0
[8]; [15]
  Plant response rating, Pigweed: 0
[8]; [16]
  Plant response rating, Pigweed: 0
[8]; [17]
  Plant response rating, Pigweed: 0
[8]; Preemergence, scale 0 to 100
  Pigweed plant response rating: 0
[9]; postemergence, 0-100 scale
  Velvetleaf plant response rating: 0
[9]; [12]
  Plant response rating, Velvetleaf: 0
[9]; [13]
  Plant response rating, Velvetleaf: 0
[9]; [14]
  Plant response rating, Velvetleaf: 0
[9]; [16]
  Plant response rating, Velvetleaf: 0
[9]; [17]
  Plant response rating, Velvetleaf: 0
[9]; Preemergence, scale 0 to 100
  Velvetleaf plant response rating: 0
Wild oat (Avena fatua); postemergence, 0-100 scale
  Oat, Wild plant response rating: 98
Wild oat (Avena fatua); [12]
  Plant response rating, Oat, Wild: 100
Wild oat (Avena fatua); [13]
  Plant response rating, Oat, Wild: 100
Wild oat (Avena fatua); [14]
  Plant response rating, Oat, Wild: 100
Wild oat (Avena fatua); [15]
  Plant response rating, Oat, Wild: 85
Wild oat (Avena fatua); [16]
  Plant response rating, Oat, Wild: 90
Wild oat (Avena fatua); [17]
  Plant response rating, Oat, Wild: 95
Wild oat (Avena fatua); Preemergence, scale 0 to 100
  Oat, Wild plant response rating: 65
[10]; postemergence, 0-100 scale
  Cupgrass, Woolly plant response rating: 100
[10]; [12]
  Plant response rating, Cupgrass, Woolly: 100
[10]; [13]
  Plant response rating, Cupgrass, Woolly: 100
[10]; [14]
  Plant response rating, Cupgrass, Woolly: 100
[10]; [15]
  Plant response rating, Cupgrass, Woolly: 100
[10]; [17]
  Plant response rating, Cupgrass, Woolly: 100
[10]; Preemergence, scale 0 to 100
  Cupgrass, Woolly plant response rating: 60
[11]; 8 g ai/ha, postemergence, 0-100 scale
  Nutsedge, Yellow plant response rating: 0
[11]; [12]
  Plant response rating, Nutsedge, Yellow: 0
[11]; [13]
  Plant response rating, Nutsedge, Yellow: 0
[11]; [14]
  Plant response rating, Nutsedge, Yellow: 0
[11]; [15]
  Plant response rating, Nutsedge, Yellow: 0
[11]; [16]
  Plant response rating, Nutsedge, Yellow: 0
[11]; [17]
  Plant response rating, Nutsedge, Yellow: 0

From US20100267561A1, “HERBICIDAL PYRIDAZINONE DERIVATIVES” (priority 2007, published 2010)
